Experimental data from patent US5095137A, “Amides of cyclomethylen-1,2-bicarboxylic acids having therapeutical activity” (Laboratori Guidotti SpA, priority 1988, dated 1992).

How the values were obtained:
ACE = target: T1, ACE (Rattus norvegicus, UniProt P47820); experiment: ACE inhibition: hydrolysis of the ippuril-glycil-glycine artificial substrate by the ACE contained in rat serum; format: biochemical
T1 construct: by the ACE contained in the rat serum; from tissue; host or cells: rat serum
T1 sequence (P47820 36-1238 limits assumed): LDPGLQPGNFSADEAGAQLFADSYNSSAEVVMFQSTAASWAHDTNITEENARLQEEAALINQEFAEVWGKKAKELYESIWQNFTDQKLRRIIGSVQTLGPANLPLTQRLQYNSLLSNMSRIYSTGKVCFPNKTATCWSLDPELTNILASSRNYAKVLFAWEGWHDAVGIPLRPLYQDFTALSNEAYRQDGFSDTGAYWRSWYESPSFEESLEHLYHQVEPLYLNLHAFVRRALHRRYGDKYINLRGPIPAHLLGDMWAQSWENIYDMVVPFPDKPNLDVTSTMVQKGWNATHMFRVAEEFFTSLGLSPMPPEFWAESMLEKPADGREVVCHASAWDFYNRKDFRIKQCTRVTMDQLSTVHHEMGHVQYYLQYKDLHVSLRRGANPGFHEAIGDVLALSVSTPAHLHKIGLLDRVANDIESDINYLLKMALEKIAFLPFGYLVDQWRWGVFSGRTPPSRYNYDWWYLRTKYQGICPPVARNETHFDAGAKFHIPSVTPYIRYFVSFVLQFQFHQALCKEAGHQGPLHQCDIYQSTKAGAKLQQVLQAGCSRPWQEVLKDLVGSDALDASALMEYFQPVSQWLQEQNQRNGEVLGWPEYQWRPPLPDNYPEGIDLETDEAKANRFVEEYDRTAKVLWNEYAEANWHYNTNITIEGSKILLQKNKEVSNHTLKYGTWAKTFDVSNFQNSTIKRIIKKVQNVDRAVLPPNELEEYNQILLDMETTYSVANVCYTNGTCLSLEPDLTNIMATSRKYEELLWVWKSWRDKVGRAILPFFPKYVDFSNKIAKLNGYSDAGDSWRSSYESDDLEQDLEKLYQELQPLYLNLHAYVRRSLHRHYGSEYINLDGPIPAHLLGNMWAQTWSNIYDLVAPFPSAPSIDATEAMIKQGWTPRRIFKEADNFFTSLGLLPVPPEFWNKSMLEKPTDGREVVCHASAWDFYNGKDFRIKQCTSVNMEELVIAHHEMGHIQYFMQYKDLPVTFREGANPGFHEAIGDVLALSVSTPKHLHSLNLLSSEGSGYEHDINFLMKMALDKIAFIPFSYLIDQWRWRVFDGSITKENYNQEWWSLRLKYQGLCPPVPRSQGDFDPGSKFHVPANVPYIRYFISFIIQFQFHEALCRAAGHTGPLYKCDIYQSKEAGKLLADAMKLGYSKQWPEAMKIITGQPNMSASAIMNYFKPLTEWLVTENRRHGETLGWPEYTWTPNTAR
Text: The IC50 values have been calculated by the regression analysis of the linear part of the log dose/percent inhibition curve.

[1] = test system: blood pressure increases induced by angiotensin I; experiment: Antihypertensive activity i.v. in the anaesthetized ganglion-blocked rat (inhibition of blood pressure increases induced by repeated i.v. injections of angiotensin I); format: in vivo
Description: Dose-dependent antihypertensive activity of selected compounds was calculated after intravenous administration to the anaesthetized ganglion-blocked rat. […] Half-lives (t1/2) of the antihypertensive action were also calculated and reported.

[2] = test system: pressure answer to angiotensin II; experiment: Influence on the pressure answer to angiotensin II; format: in vivo; settings: up to the dose of 1 mg kg i.v.

Row | SMILES | IC50 (ACE) [nM] | also measured
1 | O=C(CNC(=O)[C@H]1CCCC[C@H]1C(=O)O)NO (relative stereo) [Example 1] | 1600 | –
2 | CCN(CC(=O)NO)C(=O)[C@@H]1CCCC[C@H]1C(=O)O (relative stereo) [Example 2, Trans-2[[N-[2-(hydroxyamino)-2-oxoethyl]-N-ethylamino]carbonyl]- -cyclohexanecarboxylic acid] | 8 | Antihypertensive activity t1/2 (half-life of the antihypertensive action) [1]: 14 min
3 | CN(CC(=O)NO)C(=O)[C@H]1CCCC[C@H]1C(=O)O (relative stereo) [Example 4, cis-2[[N-[2-(hydroxyamino)-2-oxoethyl]-N-methylamino]carbonyl]-cyclohexanecarboxylic acid] | 6 | Antihypertensive activity t1/2 (half-life of the antihypertensive action) [1]: 15 min; influence on the pressure answer to angiotensin II [2]: has not influenced
4 | CN(CC(=O)NO)C(=O)[C@@H]1CCC[C@H]1C(=O)O (relative stereo) [Example 6, Trans-2[[N-[2-(hydroxyamino)-2-oxoethyl]-N-methylamino]carbonyl]cyclopentanecarboxylic acid] | 730 | –
5 | CC(=O)ON(C(C)=O)C(=O)CN(C)C(=O)[C@H]1CCCC[C@H]1C(=O)O (relative stereo) [Example 14, Cis-2-[[N-[2-(N'-acetoxy-N'-acetylamino)-2-oxoethyl]-N-methyl-amino]carbonyl]cyclohexanecarboxylic acid] | 280 | ED50 ([1]; iv, 1 min, angiotensin I-induced pressure increase, at time of maximum effect (1 min)): 1.5 mg/kg
6 | O=C(NO)C(Cc1ccccc1)NC(=O)[C@H]1CCCC[C@H]1C(=O)O (relative stereo) [Example 18, Cis-2[[N-[1-benzyl-2-(hydroxyamino)-2-oxoethyl]amino]carbonyl]-cyclohexane carboxylic acid] | 400 | –
7 | O=C(NO)C(CCc1ccccc1)NC(=O)[C@H]1CCCC[C@H]1C(=O)O (relative stereo) [Example 19, Cis-2[[N-[1-(2-phenylethyl)-2-(hydroxyamino)-2-oxoethyl]amino]carbonyl]cyclohexanecarboxylic acid] | 28000 | –
8 | O=C(NO)C(CCCc1ccccc1)NC(=O)[C@H]1CCCC[C@H]1C(=O)O (relative stereo) [Example 20, Cis-2[[N-[1-(3-phenylpropyl)-2-(hydroxyamino)-2-oxoethyl]amino]carbonyl]-cyclohexanecarboxylic acid] | 10000 | –
9 | CN(CC(=O)NO)C(=O)[C@@H]1CCCC[C@H]1C(=O)O (relative stereo) [Example 21, Trans-2-[[N-[2-(hydroxyamino)-2-oxoethyl]-N-methylamino]carbonyl]-cyclohexanecarboxylic acid] | 20 | Antihypertensive activity t1/2 (half-life of the antihypertensive action) [1]: 15 min
10 | CCN(CC(=O)NO)C(=O)[C@H]1CCCC[C@H]1C(=O)O (relative stereo) [Example 26, Cis-2[[N-[2-(hydroxyamino)-2-oxoethyl]-N-ethylamino]carbonyl]cyclohexane-carboxylic acid] | 25 | –
11 | CN(C(=O)[C@H]1CCCC[C@H]1C(=O)O)C(Cc1ccccc1)C(=O)NO (relative stereo) [Example 29, Cis-2[[N-[1-benzyl-2-(hydroxyamino)-2-oxoethyl]-N-methylamino]carbonyl]-cyclohexanecarboxylic acid] | 30 | –
12 | CN(C(=O)[C@@H]1CCCC[C@H]1C(=O)O)C(Cc1ccccc1)C(=O)NO (relative stereo) [Example 30, Trans-2[[N-[1-benzyl-2-(hydroxyamino)-2-oxoethyl]-N-methylamino]carbonyl]-cyclohexanecarboxylic acid] | 30 | –
13 | CN(C(=O)[C@H]1CCCC[C@H]1C(=O)O)C(CCCc1ccccc1)C(=O)NO (relative stereo) [Example 32, Cis-2[[N-[1-(3-phenylpropyl)-2-(hydroxyamino)-2-oxoethyl]-N-methylamino]carbonyl]-cyclohexanecarboxylic acid] | 135 | –
14 | O=C(NO)C(CNC(=O)[C@H]1CCCC[C@H]1C(=O)O)Cc1ccccc1 (stereo partly shown) [Example 3] | 3500 | –
15 | CCN(CC(=O)NO)C(=O)[C@@H]1CCCC[C@H]1C(=O)O [Example 7, trans-(1R,2R)-2[[N-[2-(hydroxyamino)-2-oxoethyl]N-ethylamino]carbonyl]-cyclohexanecarboxylic acid] | 7.6 | –
16 | CN(C(=O)[C@H]1CCCC[C@H]1C(=O)O)C(CCc1ccccc1)C(=O)NO (stereo partly drawn) [Example 8, Cis-2[[N-[1-(2-phenylethyl)-2-(hydrxyamino)-2-oxoethyl]-N-methylamino]carbonyl]-cyclohexanecarboxylic acid] | 62 | –
17 | CN(CC(=O)NO)C(=O)[C@@H]1CCCC[C@@H]1C(=O)O [Example 9, Cis-(1S,2R)-2[[N-[2-(hydroxyamino)-2-oxoethyl]-N-methylamino]carbonyl]-cyclohexanecarboxylic acid] | 3.5 | –
